Source: US12509431B2, “1,4-dihydroquinazolinone compounds and uses thereof” (Edgewise Therapeutics, Inc., priority 2022, dated 2025)

Assays:
Type in all cases: biochemical
[1] = system: Rabbit Skeletal myofibrils (rabbit psoas muscle); assay: Myofibril ATPase assay (PK/LDH NADH-coupled), skeletal myofibrils
Procedure, shortened: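 Rabbit psoas myofibrils in pCa (PIPES/CaCl2/EGTA, pH 7.0) buffer; ADP coupled via PK/LDH to NADH loss, read at 340 nm every 1.5–2 min for 75 min. Slopes normalized to vehicle (100%) and fit to 4-parameter logistic for EC25, plus EC50 for inhibitors.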

[2] = target: T1, Porcine Ventricle myofibrils (left ventricle of Yucatan minipigs) (Sus scrofa, UniProt P79293); assay: Myofibril ATPase assay (PK/LDH NADH-coupled), ventricle myofibrils
T1 construct: Myofibrils from porcine cardiac muscle was isolated from the left ventricle of Yucatan minipigs; tissue Exemplar Genetics; host or cells: left ventricle of Yucatan minipigs
Procedure, shortened: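 Yucatan minipig left-ventricle myofibrils; ATPase measured by PK/LDH-coupled NADH loss at 340 nm, read every 1.5-2 min for 75 min. Slopes normalized to vehicle (100%) and fit to 4-parameter logistic model; EC25 and, for inhibitors, EC50 calculated.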

[3] = system: Porcine Atria myofibrils; assay: Myofibril ATPase assay (PK/LDH NADH-coupled), atria myofibrils
Procedure, shortened: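 Porcine atrial myofibril ATPase followed via PK/LDH-coupled NADH depletion, absorbance at 340 nm read every 1.5-2 min over 75 min. Slopes (mAU/min) normalized to vehicle as 100% and fit to a 4-parameter logistic; EC25% derived, plus EC50% for inhibitors.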

T1 sequence (P79293 whole entry): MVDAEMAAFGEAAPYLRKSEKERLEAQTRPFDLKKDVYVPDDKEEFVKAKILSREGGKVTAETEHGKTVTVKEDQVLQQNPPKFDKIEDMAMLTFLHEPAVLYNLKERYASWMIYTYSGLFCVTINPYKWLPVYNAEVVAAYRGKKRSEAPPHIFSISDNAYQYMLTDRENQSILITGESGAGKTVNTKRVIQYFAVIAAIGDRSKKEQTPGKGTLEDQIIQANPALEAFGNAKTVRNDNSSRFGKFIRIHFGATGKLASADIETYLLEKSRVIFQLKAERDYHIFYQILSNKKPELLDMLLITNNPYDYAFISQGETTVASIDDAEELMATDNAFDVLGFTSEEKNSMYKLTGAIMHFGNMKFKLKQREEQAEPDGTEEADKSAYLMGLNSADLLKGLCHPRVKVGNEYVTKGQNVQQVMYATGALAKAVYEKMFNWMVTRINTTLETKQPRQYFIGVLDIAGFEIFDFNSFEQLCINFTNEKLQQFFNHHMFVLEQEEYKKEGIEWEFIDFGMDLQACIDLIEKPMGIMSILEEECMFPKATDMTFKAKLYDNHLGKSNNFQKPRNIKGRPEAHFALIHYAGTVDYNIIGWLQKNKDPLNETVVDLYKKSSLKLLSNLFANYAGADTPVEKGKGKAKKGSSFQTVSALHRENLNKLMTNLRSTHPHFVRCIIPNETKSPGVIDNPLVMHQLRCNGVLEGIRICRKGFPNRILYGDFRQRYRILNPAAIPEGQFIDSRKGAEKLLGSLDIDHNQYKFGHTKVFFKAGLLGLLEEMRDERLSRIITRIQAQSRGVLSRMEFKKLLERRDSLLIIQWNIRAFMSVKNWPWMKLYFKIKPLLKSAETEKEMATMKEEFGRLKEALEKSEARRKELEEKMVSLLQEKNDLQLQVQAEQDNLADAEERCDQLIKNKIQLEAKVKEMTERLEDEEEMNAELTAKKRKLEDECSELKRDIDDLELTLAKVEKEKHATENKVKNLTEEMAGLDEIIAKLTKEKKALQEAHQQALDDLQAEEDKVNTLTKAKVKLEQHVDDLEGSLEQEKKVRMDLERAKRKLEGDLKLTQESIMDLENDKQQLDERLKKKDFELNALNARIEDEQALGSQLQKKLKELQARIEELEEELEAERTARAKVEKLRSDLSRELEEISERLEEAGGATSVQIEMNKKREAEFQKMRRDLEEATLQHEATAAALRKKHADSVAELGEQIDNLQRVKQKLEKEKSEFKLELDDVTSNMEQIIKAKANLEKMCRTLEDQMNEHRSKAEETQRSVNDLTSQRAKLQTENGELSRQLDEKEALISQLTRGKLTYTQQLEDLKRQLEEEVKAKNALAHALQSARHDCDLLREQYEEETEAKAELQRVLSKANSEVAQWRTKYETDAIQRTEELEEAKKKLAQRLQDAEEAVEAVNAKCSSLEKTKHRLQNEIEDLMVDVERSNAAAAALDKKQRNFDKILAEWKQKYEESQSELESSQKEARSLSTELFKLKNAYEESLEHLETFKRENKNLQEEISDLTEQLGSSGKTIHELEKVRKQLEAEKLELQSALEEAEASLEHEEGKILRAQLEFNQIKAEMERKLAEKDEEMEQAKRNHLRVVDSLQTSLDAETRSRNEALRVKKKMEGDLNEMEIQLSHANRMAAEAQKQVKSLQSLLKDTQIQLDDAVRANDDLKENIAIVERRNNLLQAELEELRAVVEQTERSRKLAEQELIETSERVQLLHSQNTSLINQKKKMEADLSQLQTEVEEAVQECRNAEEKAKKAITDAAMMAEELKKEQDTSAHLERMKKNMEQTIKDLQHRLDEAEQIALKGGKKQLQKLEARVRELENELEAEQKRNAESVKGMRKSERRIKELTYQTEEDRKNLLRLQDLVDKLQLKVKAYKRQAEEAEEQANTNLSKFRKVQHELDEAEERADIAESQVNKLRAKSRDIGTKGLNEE

SMILES	Rabbit Psoas IC25 ([1]; Table 8) [nM]	Porcine Ventricle IC25 ([2]; Table 8) [nM]	Porcine Atria IC25 ([3]; Table 8) [nM]	Rabbit Psoas IC25 ([1]; Table 7) [nM]	Porcine Ventricle IC25 ([2]; Table 7) [nM]	Porcine Atria IC25 ([3]; Table 7) [nM]
COc1cc(C#N)ncc1[C@H](C)NC(=O)CN1Cc2c(ccc(F)c2F)NC1=O [Compound B80]	8828	2778	60	–	–	–
C[C@H](NC(=O)CN1Cc2c(Cl)cncc2NC1=O)c1ccc(F)cc1F [Compound N56, 2-{5-Chloro-2-oxo-1H,4H-pyrido[3,4-d]pyrimidin-3-yl}-N-[(1S)-1-(2,4-difluorophenyl)ethyl]acetamide]	–	–	–	86070	100000	100000
C[C@@H](NC(=O)CN1Cc2c(ccc(F)c2F)NC1=O)c1ccc(C#N)cn1 [Compound B135]	1618	15880	510	–	–	–
C[C@H](NC(=O)CN1C(=O)Nc2ccc(O)nc2C12CC2)c1ccc(F)cc1F [Compound N42]	–	–	–	100000	100000	100000
Cc1cc(F)ccc1[C@H](C)NC(=O)CN1Cc2cnccc2NC1=O [Compound N132]	–	–	–	1636	97090	3750
Cc1cnncc1C(C)NC(=O)CN1Cc2c(ccc(F)c2F)NC1=O (single isomer, unassigned) [Compound B47]	100000	96660	100000	–	–	–
Cc1cc([C@@H](C)NC(=O)CN2Cc3c(ccc(F)c3F)NC2=O)ncc1F [Compound B68]	58620	1168	2030	–	–	–
C[C@@H](NC(=O)CN1C(=O)Nc2ccc(F)c(F)c2C12CC2)c1ncc(C#N)cc1F [Compound B323]	630	320	100	–	–	–
Cc1cc([C@@H](C)NC(=O)CN2Cc3c(ccc(F)c3F)NC2=O)ncc1C#N [Compound B34]	100000	3618	160	–	–	–
C[C@H](NC(=O)CN1C(=O)Nc2ccc(F)c(F)c2C12CC2)c1cnc(C#N)cn1 [Compound B315]	20	90	50	–	–	–
Cc1nc(C(C)NC(=O)CN2Cc3c(ccc(F)c3F)NC2=O)no1 (stereo not drawn) [Compound B340]	100000	100000	3800	–	–	–
O=C(CN1Cc2c(ccnc2C(F)(F)F)NC1=O)N[C@@H]1COc2cc(F)cc(F)c21 [Compound N18]	–	–	–	30.98	1324	120
Cc1ncc(F)c([C@@H](C)NC(=O)CN2Cc3c(ccc(F)c3F)NC2=O)n1 [Compound B346]	59270	1630	220	–	–	–
C[C@H](NC(=O)CN1Cc2nc(F)ccc2NC1=O)c1ncc(F)cc1F [Compound N105]	–	–	–	30960	100000	100000
Cc1nc(C#N)ncc1[C@@H](C)NC(=O)CN1C(=O)Nc2ccc(F)cc2C12CC2 [Compound B332]	60	100	60	–	–	–
C[C@H](NC(=O)CN1Cc2c(ccnc2C#N)NC1=O)c1ccc(F)cc1F [Compound N81]	–	–	–	45.49	545	240
N#Cc1c(F)ccc2c1CN(CC(=O)N[C@H]1COc3cc(F)cc(F)c31)C(=O)N2 [Compound B140]	1501	55230	1100	–	–	–
C[C@H](NC(=O)CN1Cc2c(ccc(F)c2F)NC1=O)c1ncc(F)cc1Cl [Compound B37]	384.4	490.1	280	–	–	–

SMILES	Rabbit Psoas IC25 ([1]; Table 8) [nM]	Porcine Ventricle IC25 ([2]; Table 8) [nM]	Porcine Atria IC25 ([3]; Table 8) [nM]	Rabbit Psoas IC25 ([1]; Table 7) [nM]	Porcine Ventricle IC25 ([2]; Table 7) [nM]	Porcine Atria IC25 ([3]; Table 7) [nM]
CC(C)Oc1nccc2c1CN(CC(=O)N[C@@H](C)c1ccc(F)cc1F)C(=O)N2 [Compound N120]	–	–	–	423.9	27230	100000
N#Cc1c(F)ccc2c1CN(CC(=O)N[C@@H]1COc3cc(F)cc(F)c31)C(=O)N2 [Compound B139]	13.93	121.5	50	–	–	–
C[C@H](NC(=O)CN1Cc2c(ccc(F)c2F)NC1=O)c1ccc(F)cc1F [Compound B238]	11.6	143.5	30	–	–	–
C[C@H](C(=O)N[C@H](CO)c1ncc(F)cc1F)N1Cc2c(Cl)cccc2NC1=O [Compound B168]	100000	100000	100000	–	–	–
C[C@H](NC(=O)CN1Cc2c(ccc(C#N)c2F)NC1=O)c1ccc(F)cc1F [Compound B160, 2-(6-Cyano-5-fluoro-2-oxo-1,4-dihydroquinazolin-3-yl)-N-[(1S)-1-(2,4-difluorophenyl)ethyl]acetamide]	315.4	4311	360	–	–	–
Cc1noc([C@@H](C)NC(=O)CN2Cc3c(ccc(F)c3F)NC2=O)n1 [Compound B71]	100000	40660	43180	–	–	–
C[C@H](NC(=O)CN1Cc2cnccc2NC1=O)c1ccc(F)cc1F [Compound N133]	–	–	–	839.1	13900	2800
C[C@H](NC(=O)CN1Cc2cc(F)c(F)cc2NC1=O)c1ncc(C#N)cc1F [Compound B358]	130	330	100	–	–	–
C[C@H](NC(=O)CN1C(=O)Nc2ccc(F)cc2C12CC2)c1ncc(F)cc1F [Compound B164]	27.3	344.4	100	–	–	–
N#Cc1cnc2c(c1)CC[C@H]2NC(=O)CN1Cc2c(ccc(F)c2F)NC1=O [Compound B89, N-[(7R)-3-Cyano-5H,6H,7H-cyclopenta[b]pyridin-7-yl]-2-(5,6-difluoro-2-oxo-1,4-dihydroquinazolin-3-yl)acetamide]	78.47	246.9	70	–	–	–
CC(NC(=O)CN1Cc2cc(C#N)ccc2NC1=O)c1ncc(C#N)cc1F (stereo not drawn) [Compound B157]	100000	100000	5960	–	–	–
C[C@H](NC(=O)CN1C(=O)Nc2ccncc2[C@H]1C)c1ccc(F)cc1F [Compound N85]	–	–	–	4254	100000	18870
C[C@@H](NC(=O)CN1Cc2cc(Cl)cnc2NC1=O)c1ncc(F)cc1F [Compound N75]	–	–	–	100000	100000	100000
Cc1nsc([C@H](C)NC(=O)CN2Cc3c(ccc(F)c3F)NC2=O)n1 [Compound B3]	100000	52510	34810	–	–	–
CC(=O)N1CC2(C1)c1cc(F)ccc1NC(=O)N2CC(=O)N[C@@H](C)c1ncc(C#N)cc1F [Compound B256]	39410	46270	75740	–	–	–
N#Cc1cnc2c(c1)OC[C@H]2NC(=O)CN1Cc2c(ccc(F)c2F)NC1=O [Compound B64]	777.3	579.8	520	–	–	–
CC(C(=O)N[C@@H](C)c1ccc(F)cc1F)N1Cc2nc(F)ccc2NC1=O (stereo partly drawn) [Compound N110]	–	–	–	167.4	19540	190
